Legend:
Type in all cases: cell-based, human
[1] = tested on: Jurkat cells expressing TCR16; details: HLA-A*02:01, T2 cells pulsed with 9-mers
H1395 lung cancer cells = assay: Cell-mediated cytotoxicity of H1395 lung cancer cells by TCR2 primary T cells; details: peptide-pulsed A*02+ H1395 cells, TMEM9-mer compared to LMP9-mer
[2] = tested on: Jurkat cells expressing TCR2 (Jurkat-TCR2); details: CD69; T2 cells pulsed with peptide, 2 μM, 18 h
Jurkat-TCR15 clone = assay: Stimulation of Jurkat-TCR15 clone; details: HLA-A*02 context; TCR15 CDR3β […]
[3] = tested on: primary T cells expressing TCR2; details: HLA-A*02+ 293T cells overexpressing full-length protein, 1:1 ratio, 18 h

Molecule: ALGGLLTPL [TMEM9-mer]
- recognition by TCR16 (in words) [1]: recognized TMEM9-mer but not the microbial antigens
- cell-mediated cytotoxicity (in words) (H1395 lung cancer cells): weaker targets for cell-mediated cytotoxicity compared to those with LMP9-mer
- stimulation of Jurkat-TCR2 cells (in words) [2]: could all stimulate the Jurkat-TCR2 cells

Molecule: AMGGLLTQLAM
- stimulation of Jurkat-TCR2 cells (in words) [2]: stimulated Jurkat cells expressing TCR2

Molecule: CLGGLLTMV [LMP9-mer]
- stimulation of Jurkat-TCR2 cells (in words) [2]: could all stimulate the Jurkat-TCR2 cells

Molecule: KLGGLLTMVGV
- stimulation of Jurkat-TCR2 cells (in words) [2]: stimulated Jurkat cells expressing TCR2

Molecule: LLGGLLTMV [EntS9-mer]
- stimulation of Jurkat-TCR2 cells (in words) [2]: could all stimulate the Jurkat-TCR2 cells

Molecule: LLGTLVAML
- stimulation of Jurkat-TCR15 clone (in words) (Jurkat-TCR15 clone): also stimulated the Jurkat-TCR15 clone

B1: TMEM161A: full-length protein TMEM161A expressed in HLA-A*02+ 293T cells (protein, UniProt Q9NX61 1-479, looked up)
chain: MAVLGVQLVVTLLTATLMHRLAPHCSFARWLLCNGSLFRYKHPSEEELRALAGKPRPRGRKERWANGLSEEKPLSVPRDAPFQLETCPLTTVDALVLRFFLEYQWFVDFAVYSGGVYLFTEAYYYMLGPAKETNIAVFWCLLTVTFSIKMFLTVTRLYFSAEEGGERSVCLTFAFLFLLLAMLVQVVREETLELGLEPGLASMTQNLEPLLKKQGWDWALPVAKLAIRVGLAVVGSVLGAFLTFPGLRLAQTHRDALTMSEDRPMLQFLLHTSFLSPLFILWLWTKPIARDFLHQPPFGETRFSLLSDSAFDSGRLWLLVVLCLLRLAVTRPHLQAYLCLAKARVEQLRREAGRIEAREIQQRVVRVYCYVTVVSLQYLTPLILTLNCTLLLKTLGGYSWGLGPAPLLSPDPSSASAAPIGSGEDEVQQTAARIAGALGGLLTPLFLRGVLAYLIWWTAACQLLASLFGLYFHQHLAGS
modifications: full-length
- stimulation of TCR2-T cells by full-length protein (in words) [3]: appearing to be the weakest stimulator

Reference: article PMC7960510 (Immunity, 2021)
